{"source": "paper PMC6156427", "about": "“Characterization of NGFFYamide Signaling in Starfish Reveals Roles in Regulation of Feeding Behavior and Locomotory Systems” (Frontiers in Endocrinology, 2018)", "key": {"[1]": {"tested_on": "crustaceans", "conditions": "ref [25]; cited from earlier work", "from_the_text": "(§1) Furthermore, there is substantial evidence that CCAP is one of several neuropeptides that regulate shedding of the exoskeleton (ecdysis) in arthropods. Thus, a dramatic increase in circulating levels of CCAP has been observed in two crustacean species during ecdysis ([26])."}, "[2]": {"tested_on": "oviduct", "conditions": "Locusta migratoria; ref [82]; cited from earlier work", "from_the_text": "as §1"}, "[3]": {"tested_on": "cockroach P. americana", "conditions": "ref [33]; cited from earlier work", "from_the_text": "as §1"}, "[4]": {"tested_on": "gut", "conditions": "cockroaches; ref [32], [83]; cited from earlier work", "from_the_text": "as §1"}, "[5]": {"tested_on": "moth Manduca sexta", "conditions": "ref [28], [78], [79]; cited from earlier work", "from_the_text": "as §1"}, "[6]": {"tested_on": "tube foot preparations from A. rubens", "conditions": "ACh 10^−6 M; ref [54], [57]; cited from earlier work", "description": "Here, NGFFYamide was tested in vitro to investigate its effect on apical muscle and tube foot preparations from A. rubens, using the same methods reported previously when testing other neuropeptides ([53], [54], [56]). Briefly, the apical muscle was dissected from the aboral body wall of starfish arms and cut into segments approximately 1 cm in length and cotton ligatures were tied at each end. […] Thus, application of NGFFYamide triggered phasic contractions of tube feet that were superimposed upon an increase in basal tone. Furthermore, there was concentration-dependency in the effect of NGFFYamide on both the amplitude and the frequency of the phasic contractions. This action of NGFFYamide on tube feet is interesting because it is the first neuropeptide that we have ..."}, "[7]": {"tested_on": "apical muscle preparations from A. rubens", "conditions": "ACh 10^−6 M; ref [54], [57]; cited from earlier work", "description": "Investigation of the physiological roles of NG peptides in echinoderms was advanced most recently with the discovery of the precursor of the NG peptide NGFFYamide (NGFFY-NH2) in the starfish A. rubens. Research on neuropeptide systems in this species led to the discovery of the first echinoderm neuropeptides to be sequenced—the SALMFamide neuropeptides S1 and S2 ([45]). […] Here, NGFFYamide was tested in vitro to investigate its effect on apical muscle and tube foot preparations from A. rubens, using the same methods reported previously when testing other neuropeptides ([53], [54], [56]). Briefly, the apical muscle was dissected from the aboral body wall of starfish arms and cut into segments approximately 1 cm in length and cotton ligatures were tied at each end. […] Thus, NGFFYamide precursor-expressing cells are present in the coelomic lining of the apical muscle, a thickening of the longitudinally orientated body wall muscle layer located in an aboral and sagittal position in each arm."}, "[8]": {"tested_on": "longitudinal body wall muscle", "conditions": "A. japonicus; ref [43]; cited from earlier work", "from_the_text": "(§2) Having analyzed both the anatomical expression pattern and bioactivity of NGFFYamide in the starfish A. rubens, it is of interest to make comparisons with what is known about the physiological roles of NG peptides in other echinoderms. The first NG peptide to be identified in an echinoderm was NGIWYamide, which was isolated from the sea cucumber A. japonicus on account of its effect in causing contraction of longitudinal body wall muscles in this species ([42])."}, "[9]": {"tested_on": "intestine preparations", "conditions": "A. japonicus; ref [43]; cited from earlier work", "from_the_text": "as §2"}, "[10]": {"tested_on": "oocyte maturation and spawning", "conditions": "A. japonicus; ref [44]; cited from earlier work", "from_the_text": "as §2"}, "[11]": {"tested_on": "tentacle preparations", "conditions": "A. japonicus; ref [43]; cited from earlier work", "from_the_text": "as §2"}, "[12]": {"tested_on": "body wall mutable collagenous tissue", "conditions": "A. japonicus; ref [64]; cited from earlier work", "from_the_text": "as §2"}, "[13]": {"tested_on": "NPS/CCAP-type receptor in the sea urchin S. purpuratus", "conditions": "ref [8]; cited from earlier work", "from_the_text": "Evidence that NG peptides are orthologs of vertebrate NPS-type neuropeptides was provided by analysis of the sequence of the NG peptide precursor in the cephalochordate B. floridae, which comprises two copies of a peptide (SFRNGVG) that is identical to the N-terminal region of NPS ([…]) ([34]). However, definitive proof was provided with the discovery that an NPS/CCAP-type receptor in the sea urchin S. purpuratus is activated by the neuropeptide NGFFFamide ([8]). Thus, a bilaterian neuropeptide family comprising NPS in vertebrates, NG peptides in invertebrate deuterostomes and ..."}, "[14]": {"tested_on": "tube foot preparations from the sea urchin E. esculentus", "conditions": "Echinus esculentus; ref [35]; cited from earlier work", "from_the_text": "as §2"}, "[15]": {"tested_on": "esophagus preparations from the sea urchin E. esculentus", "conditions": "Echinus esculentus; ref [35]; cited from earlier work", "from_the_text": "as §2"}, "[16]": {"tested_on": "rodents", "conditions": "ref [76]; cited from earlier work", "from_the_text": "(§3) Thus, nothing was known about its physiological roles when NPS was first identified. […] Furthermore, evidence that the anxiolytic effect ..."}, "[17]": {"tested_on": "mammals", "conditions": "ref [15], [18], [72]–[75]; cited from earlier work", "from_the_text": "as §3"}, "[18]": {"tested_on": "mice", "conditions": "ref [9], cited from earlier work", "from_the_text": "as §3"}, "[19]": {"tested_on": "\"orphan\" G-protein coupled receptor GPR154", "conditions": "ref [65]; cited from earlier work", "from_the_text": "as §3"}, "[20]": {"tested_on": "rats", "conditions": "ref [9]; cited from earlier work", "from_the_text": "as §3"}, "[21]": {"tested_on": "tube foot preparations from A. rubens", "experiment": "in vitro pharmacology, tube foot preparations", "design": "species or system Asterias rubens", "conditions": "read-out: half maximal response concentration (EC50), tonic contraction; tonic contraction of tube feet, 10^−9-10^−6 M; six measurements; 11°C; four-parameter curve", "description": "Here, NGFFYamide was tested in vitro to investigate its effect on apical muscle and tube foot preparations from A. rubens, using the same methods reported previously when testing other neuropeptides ([53], [54], [56]). Briefly, the apical muscle was dissected from the aboral body wall of starfish arms and cut into segments approximately 1 cm in length and cotton ligatures were tied at each end. Tube foot preparations were obtained by dissecting from starfish arms a small square-shaped piece of ambulacral body wall containing a single tube foot podium and its associated ampullae. […] A relaxant effect of NGFFYamide on apical muscle preparations was expressed as a percentage reversal of the maximal contraction induced by 10^−6 M ACh. […] For phasic contractions, peak amplitude and frequency were quantified over a 5-min recording period and expressed as mean amplitude and mean peaks/minute, respectively. For in vitro characterization of the effects of NGFFYamide on tube foot preparations, a concentration-response curve was fitted with a four-parameter curve and the EC50 value was calculated based on six measurements. The in vitro effect of NGFFYamide on basal tone was analyzed by one-way ANOVA using Bonferroni's multiple comparisons post-hoc test. […]"}}, "note": "No end group written: not given here.", "data": [{"molecule": "PFCNAFTGC-NH2 [CCAP, 9-residue neuropeptide first discovered in the crustacean Carcinus maenas]", "values": [{"measurement": "cardioexcitatory effect", "setting": "[1]", "result": "cardioexcitatory"}, {"measurement": "oviduct contractions", "setting": "[2]", "result": "induction of oviduct contractions"}, {"measurement": "locomotor activity", "setting": "[3]", "result": "inhibition of locomotor activity"}, {"measurement": "gut contraction and secretion of digestive enzymes", "setting": "[4]", "result": "stimulation of gut contraction and secretion of digestive enzymes"}, {"measurement": "ecdysis motor program", "setting": "[5]", "result": "activates an ecdysis motor program"}]}, {"molecule": "CC(=O)OCC[N+](C)(C)C", "note": "[acetylcholine]", "values": [{"measurement": "contractant of starfish tube feet", "setting": "[6]", "result": "known contractant"}, {"measurement": "contractant of starfish apical muscle", "setting": "[7]", "result": "known contractant"}]}, {"molecule": "NGIWYamide", "values": [{"measurement": "contraction of longitudinal body wall muscle", "setting": "[8]", "result": "tonic contraction"}, {"measurement": "spontaneous phasic contractions of intestine preparations", "setting": "[9]", "result": "inhibition"}, {"measurement": "oocyte maturation and spawning", "setting": "[10]", "result": "induction of oocyte maturation and spawning"}, {"measurement": "contraction of tentacle preparations", "setting": "[11]", "result": "tonic contraction"}, {"measurement": "effect on body wall mutable collagenous tissue", "setting": "[12]", "result": "stiffening"}]}, {"molecule": "NGFFF-NH2 [NGFFFamide]", "values": [{"measurement": "activation of NPS/CCAP-type receptor", "setting": "[13]", "result": "activated"}, {"measurement": "contraction of tube foot preparations", "setting": "[14]", "result": "contraction"}, {"measurement": "contraction of esophagus preparations", "setting": "[15]", "result": "contraction"}]}, {"molecule": "SFRNGVGTGMKKTSFQRAKS [NPS, 20-residue neuropeptide first discovered in rodents]", "values": [{"measurement": "food intake (increase, one study)", "setting": "[16]", "result": "increase food intake"}, {"measurement": "food intake (inhibition)", "setting": "[17]", "result": "inhibition of food intake"}, {"measurement": "anxiolytic-like effects", "setting": "[18]; mice exposed to stressful conditions", "result": "anxiolytic-like effects"}, {"measurement": "locomotor activity", "setting": "[18]", "result": "increases locomotor activity"}, {"measurement": "ligand of GPR154", "setting": "[19]", "result": "endogenous ligand"}, {"measurement": "wakefulness", "setting": "[20]", "result": "increases wakefulness"}]}, {"molecule": "NGFFY-NH2 [NGFFYamide]", "values": [{"measurement": "EC50", "setting": "[21]", "result": 0.014, "unit": "µM"}]}]}
